Measured values reported in US10479784B2, “Substituted pyrazin-2-amines as inhibitors of ATR kinase” (Vertex Pharmaceuticals Incorporated, priority 2008, dated 2019).

What follows are compounds tested against full-length ATR (Homo sapiens (Human), UniProt Q13535) (assay: ATR Inhibition Assay (radioactive-phosphate incorporation)). Details: read-out: ATR Ki.
Sequence of full-length ATR (Q13535 whole entry): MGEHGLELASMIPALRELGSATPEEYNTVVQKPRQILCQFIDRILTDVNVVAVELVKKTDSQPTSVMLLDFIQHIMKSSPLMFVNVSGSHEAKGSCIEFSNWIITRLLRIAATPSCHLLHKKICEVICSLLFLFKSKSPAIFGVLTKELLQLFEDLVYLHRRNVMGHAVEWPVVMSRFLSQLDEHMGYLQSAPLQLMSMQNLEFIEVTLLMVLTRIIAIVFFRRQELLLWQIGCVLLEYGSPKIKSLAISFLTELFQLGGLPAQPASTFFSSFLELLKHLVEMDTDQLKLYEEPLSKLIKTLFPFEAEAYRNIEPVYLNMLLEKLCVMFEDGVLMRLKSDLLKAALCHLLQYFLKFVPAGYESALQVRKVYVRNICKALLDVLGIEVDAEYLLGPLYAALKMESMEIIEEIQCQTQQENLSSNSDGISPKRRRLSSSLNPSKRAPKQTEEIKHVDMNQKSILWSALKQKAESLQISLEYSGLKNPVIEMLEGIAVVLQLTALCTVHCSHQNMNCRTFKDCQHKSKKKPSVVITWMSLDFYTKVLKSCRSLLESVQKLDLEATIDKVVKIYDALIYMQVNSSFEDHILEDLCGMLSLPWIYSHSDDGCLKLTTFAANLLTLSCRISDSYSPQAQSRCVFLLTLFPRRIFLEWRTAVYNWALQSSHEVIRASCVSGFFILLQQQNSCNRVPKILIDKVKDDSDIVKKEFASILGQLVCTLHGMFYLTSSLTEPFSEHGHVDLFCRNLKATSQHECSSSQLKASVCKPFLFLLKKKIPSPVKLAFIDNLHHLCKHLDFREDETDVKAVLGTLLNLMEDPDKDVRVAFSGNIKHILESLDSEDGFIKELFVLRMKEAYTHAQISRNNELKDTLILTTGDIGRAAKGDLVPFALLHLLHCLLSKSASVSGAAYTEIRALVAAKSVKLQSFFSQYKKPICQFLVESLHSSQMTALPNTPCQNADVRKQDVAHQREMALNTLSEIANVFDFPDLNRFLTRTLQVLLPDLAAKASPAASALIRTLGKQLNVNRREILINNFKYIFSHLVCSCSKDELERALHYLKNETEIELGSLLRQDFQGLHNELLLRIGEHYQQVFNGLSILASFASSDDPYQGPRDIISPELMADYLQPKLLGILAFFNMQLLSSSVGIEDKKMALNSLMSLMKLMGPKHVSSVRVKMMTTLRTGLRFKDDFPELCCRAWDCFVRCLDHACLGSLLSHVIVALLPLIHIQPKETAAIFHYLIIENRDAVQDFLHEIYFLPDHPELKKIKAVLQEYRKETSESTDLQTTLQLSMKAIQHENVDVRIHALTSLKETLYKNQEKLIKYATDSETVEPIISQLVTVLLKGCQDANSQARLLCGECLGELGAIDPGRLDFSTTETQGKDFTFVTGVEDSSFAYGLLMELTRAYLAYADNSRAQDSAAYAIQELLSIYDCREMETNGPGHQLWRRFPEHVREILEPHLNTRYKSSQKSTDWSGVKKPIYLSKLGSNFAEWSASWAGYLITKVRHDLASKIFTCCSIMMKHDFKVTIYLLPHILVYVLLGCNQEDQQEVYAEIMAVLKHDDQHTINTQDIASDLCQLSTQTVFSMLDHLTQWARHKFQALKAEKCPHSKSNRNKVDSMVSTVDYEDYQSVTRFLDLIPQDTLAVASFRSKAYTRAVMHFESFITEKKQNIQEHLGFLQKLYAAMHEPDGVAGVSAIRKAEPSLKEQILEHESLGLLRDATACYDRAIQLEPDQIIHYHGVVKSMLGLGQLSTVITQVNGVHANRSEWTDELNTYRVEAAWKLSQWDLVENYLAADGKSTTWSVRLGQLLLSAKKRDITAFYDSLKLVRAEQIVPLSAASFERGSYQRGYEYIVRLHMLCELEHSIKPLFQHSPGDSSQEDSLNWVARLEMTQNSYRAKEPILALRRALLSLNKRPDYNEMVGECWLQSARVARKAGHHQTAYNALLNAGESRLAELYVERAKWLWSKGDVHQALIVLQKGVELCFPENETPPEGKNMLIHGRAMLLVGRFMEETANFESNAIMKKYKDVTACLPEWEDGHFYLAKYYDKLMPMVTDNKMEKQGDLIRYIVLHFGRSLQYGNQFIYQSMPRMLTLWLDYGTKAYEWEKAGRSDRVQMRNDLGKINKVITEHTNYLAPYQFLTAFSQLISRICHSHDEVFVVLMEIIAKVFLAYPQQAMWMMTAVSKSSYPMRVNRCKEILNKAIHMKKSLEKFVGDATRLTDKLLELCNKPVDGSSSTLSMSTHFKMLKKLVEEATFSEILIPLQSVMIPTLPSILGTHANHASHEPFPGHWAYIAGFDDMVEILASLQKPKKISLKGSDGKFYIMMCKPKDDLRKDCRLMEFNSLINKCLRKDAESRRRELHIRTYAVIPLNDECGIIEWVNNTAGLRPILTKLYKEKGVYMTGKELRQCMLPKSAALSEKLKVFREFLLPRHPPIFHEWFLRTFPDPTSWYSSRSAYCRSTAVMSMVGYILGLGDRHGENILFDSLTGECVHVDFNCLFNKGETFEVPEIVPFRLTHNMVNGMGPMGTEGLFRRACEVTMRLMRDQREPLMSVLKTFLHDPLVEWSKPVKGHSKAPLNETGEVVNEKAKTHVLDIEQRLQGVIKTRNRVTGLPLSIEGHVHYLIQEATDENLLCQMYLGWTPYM
Type: biochemical
Experimental: Compounds were screened for their ability to inhibit ATR kinase using a radioactive-phosphate incorporation assay. Assays were carried out in a mixture of 50 mM Tris/HCl (pH 7.5), 10 mM MgCl2 and 1 mM DTT. Final substrate concentrations were […] [γ-33P]ATP (3mCi 33P ATP/mmol ATP, Perkin Elmer) and 800 μM target peptide ([…]).
Assays were carried out at 25° C. in the presence of 5 nM full-length ATR. An assay stock buffer solution was prepared containing all of the reagents listed above, with the exception of ATP and the test compound of interest. […] The plate was pre-incubated for 10 minutes at 25° C. and the reaction initiated by addition of 15 μL [γ-33P]ATP (final concentration 10 μM).
The reaction was stopped after […] by the addition of 30 μL 0.1M phosphoric acid containing 2 mM ATP. A multiscreen phosphocellulose filter 96-well plate (Millipore, Cat no. MAPHN0B50) was pretreated with 100 μL 0.2M phosphoric acid prior to the addition of 45 μL of the stopped assay mixture. […] After drying, 100 μL Optiphase ‘SuperMix’ liquid scintillation cocktail (Perkin Elmer) was added to the well prior to scintillation counting (1450 Microbeta Liquid Scintillation Counter, Wallac).
After removing mean background values for all of the data points, Ki(app) data were calculated from non-linear regression analysis of the initial rate data using the Prism software package (GraphPad Prism version 3.0cx for Macintosh, GraphPad Software, San Diego Calif., USA).
With `CC(C)S(=O)(=O)c1ccc(-c2cnc(N)c(-c3nnc(-c4ccc(C(=N)N)cc4)o3)n2)cc1` [IA-70, 4-[5-[3-amino-6-(4-isopropylsulfonylphenyl)pyrazin-2-yl]-1,3,4-oxadiazol-2-yl]benzamidine] the Ki was at most 10 nM.
`CC(C)S(=O)(=O)c1ccc(-c2cnc(N)c(-c3nnc(-c4ccc(CNCC(C)(C)O)cc4F)o3)n2)cc1` [IA-348, 1-(4-(5-(3-amino-6-(4-(isopropylsulfonyl)phenyl)pyrazin-2-yl)-1,3,4-oxadiazol-2-yl)-3-fluorobenzylamino)-2-methylpropan-2-ol] gave a Ki of at most 10 nM.
In the case of `CCNCc1ccc(-c2cc(-c3nc(-c4ccc(S(=O)(=O)C(C)C)cc4)cnc3N)on2)cc1` [IIA-10, 3-[3-[4-(ethylaminomethyl)phenyl]isoxazol-5-yl]-5-(4-isopropylsulfonylphenyl)pyrazin-2-amine], the Ki is reported as at most 10 nM.
`CC(C)S(=O)(=O)c1ccc(-c2cnc(N)c(-c3nnc(-c4ccc(C#N)cc4)o3)n2)cc1` [IA-273, 4-[5-[3-amino-6-(4-isopropylsulfonylphenyl)pyrazin-2-yl]-1,3,4-oxadiazol-2-yl]benzonitrile] was tested, and the Ki was 10 to 100 nM.
In the case of `CS(=O)(=O)Nc1ccc(-c2cnc(N)c(C(=O)Nc3ccccc3)n2)cc1` [Compound I-5, 3-amino-6-(4-(methylsulfonamido)phenyl)-N-phenylpyrazine-2-carboxamide], the Ki is reported as 10 to 100 nM.
Compound `CC(C)S(=O)(=O)c1ccc(-c2cnc(N)c(-c3nnc(NC(=O)[C@H]4N[C@H]5CC[C@@H]4C5)o3)n2)cc1` [IA-160, (1R,4S,6S)—N-[5-[3-amino-6-(4-isopropylsulfonylphenyl)pyrazin-2-yl]-1,3,4-oxadiazol-2-yl]-5-azabicyclo[2.2.1]heptane-6-carboxamide] has a Ki of 100 to 5000 nM.
With `Nc1ncc(-c2cccc(N3CCOCC3)c2)nc1C(=O)Nc1ccccc1` [Compound I-12, 3-amino-6-(3-morpholinophenyl)-N-phenylpyrazine-2-carboxamide] the Ki was 100 to 5000 nM.
`CS(=O)(=O)c1ccc(-c2cnc(N)c(C(=O)Nc3ccc4cc[nH]c4n3)n2)cc1` [Compound V-12] was tested, and the Ki was at most 10 nM.
`Nc1ncc(-c2ccnc(N3CCNCC3)c2)nc1-c1nc2ccccc2[nH]1` [Compound I-136, 3-(1H-benzo[d]imidazol-2-yl)-5-(2-(piperazin-1-yl)pyridin-4-yl)pyrazin-2-amine] showed a Ki of 100 to 5000 nM.
`Nc1ncc(-c2ccccc2O)nc1-c1nnc(-c2ccccc2)o1` [IA-61] showed a Ki of 10 to 100 nM.
Compound `N#Cc1cccc(NC(=O)c2nc(-c3cccnc3)cnc2N)c1` [Compound I-87, 3-amino-N-(3-cyanophenyl)-6-(pyridin-3-yl)pyrazine-2-carboxamide] has a Ki of 100 to 5000 nM.
`Nc1ncc(-c2cccc(O)c2)nc1-c1nc2ccccc2[nH]1` [Compound I-126, 3-(5-amino-6-(1H-benzo[d]imidazol-2-yl)pyrazin-2-yl)phenol] was tested, and the Ki was 100 to 5000 nM.
`CC(=O)OCc1ccc(-c2nnc(-c3nc(-c4ccc(C(=O)N(C)C)cc4)cnc3N)o2)cc1` [IA-131, [4-[5-[3-amino-6-[4-(dimethylcarbamoyl)phenyl]pyrazin-2-yl]-1,3,4-oxadiazol-2-yl]phenyl]methyl acetate] gave a Ki of 10 to 100 nM.
For `Nc1ncc(-c2cccnc2)nc1C(=O)Nc1ccc(F)cc1` [Compound I-94, 3-amino-N-(4-fluorophenyl)-6-(pyridin-3-yl)pyrazine-2-carboxamide], the Ki was 100 to 5000 nM.
`Nc1ncc(-c2cccnc2)nc1-c1nnc(-c2ccccc2)o1` [IA-64] gave a Ki of 10 to 100 nM.
For `CN(C)C(=O)c1ccc(-c2cnc(N)c(-c3nnc(-c4sccc4C#N)o3)n2)cc1` [IA-189, 4-[5-amino-6-[5-(3-cyano-2-thienyl)-1,3,4-oxadiazol-2-yl]pyrazin-2-yl]-N,N-dimethyl-benzamide], the Ki was 10 to 100 nM.
In the case of `CS(=O)(=O)c1ccc(-c2cnc(N)c(-c3nc4ccccc4[nH]3)n2)cc1` [Compound I-123, 3-(1H-benzo[d]imidazol-2-yl)-5-(4-(methylsulfonyl)phenyl)pyrazin-2-amine], the Ki is reported as 10 to 100 nM.
Compound `Cc1ccc(-c2nnc(-c3nc(-c4ccc(C(=O)N(C)C)cc4)cnc3N)o2)s1` [IA-245, 4-[5-amino-6-[5-(5-methyl-2-thienyl)-1,3,4-oxadiazol-2-yl]pyrazin-2-yl]-N,N-dimethyl-benzamide] has a Ki of 10 to 100 nM.
With `CNCc1ccc(-c2nnc(-c3nc(-c4ccc(S(=O)(=O)C(C)C)cc4)cnc3N)o2)c(Cl)c1` [IA-306, 3-[5-[2-chloro-4-(methylaminomethyl)phenyl]-1,3,4-oxadiazol-2-yl]-5-(4-isopropylsulfonylphenyl)pyrazin-2-amine] the Ki was at most 10 nM.
Compound `CC(C)S(=O)(=O)c1ccc(-c2cnc(N)c(-c3cc(-c4ccc(CNCCO)cc4)no3)n2)cc1` [IIA-9, 2-(4-(5-(3-amino-6-(4-(isopropylsulfonyl)phenyl)pyrazin-2-yl)isoxazol-3-yl)benzylamino)ethanol] has a Ki of at most 10 nM.
`CC(C)S(=O)(=O)c1ccc(-c2cnc(N)c(-c3nnc(-c4ccc(CNC5CCOC5)cc4F)o3)n2)cc1` (stereo not drawn) [IA-345, 3-[5-[2-fluoro-4-[(tetrahydrofuran-3-ylamino)methyl]phenyl]-1,3,4-oxadiazol-2-yl]-5-(4-isopropylsulfonylphenyl)pyrazin-2-amine] gave a Ki of at most 10 nM.
In the case of `CN1CCN(C(=O)c2ccc(-c3cnc(N)c(-c4nnc(-c5ccccc5)o4)n3)cc2)CC1` [IA-9], the Ki is reported as at most 10 nM.
Work on `CN(C)C(=O)c1ccc(-c2cnc(N)c(-c3nnc(Nc4cccnc4)o3)n2)cc1` [IA-44] yielded a Ki of 10 to 100 nM.
Compound `CN1CCC(NC(=O)c2ccc(-c3cnc(N)c(C(=O)Nc4ccccc4)n3)cc2)CC1` [Compound I-64, 3-amino-6-(4-(1-methylpiperidin-4-ylcarbamoyl)phenyl)-N-phenylpyrazine-2-carboxamide] has a Ki of 100 to 5000 nM.
`CC(C)S(=O)(=O)c1ccc(-c2cnc(N)c(-c3nnc(N4CCC(N)CC4)o3)n2)cc1` [IA-109, 3-[5-(4-amino-1-piperidyl)-1,3,4-oxadiazol-2-yl]-5-(4-isopropylsulfonylphenyl)pyrazin-2-amine] gave a Ki of 100 to 5000 nM.
Compound `CN(C)C(=O)c1ccc(-c2cnc(N)c(-c3nnc(-c4cscn4)o3)n2)cc1` [IA-180, 4-[5-amino-6-(5-thiazol-4-yl-1,3,4-oxadiazol-2-yl)pyrazin-2-yl]-N,N-dimethyl-benzamide] has a Ki of 10 to 100 nM.
With `NCc1ccc(-c2nnc(-c3nc(-c4cccnc4)cnc3N)[nH]2)cc1` [Compound I-139, 3-(5-(4-(aminomethyl)phenyl)-4H-1,2,4-triazol-3-yl)-5-(pyridin-3-yl)pyrazin-2-amine] the Ki was 10 to 100 nM.
Work on `CN(C)[C@@H]1CCN(C(=O)c2ccc(-c3cnc(N)c(-c4nnc(-c5ccccc5)o4)n3)cc2F)C1` [IA-5] yielded a Ki of at most 10 nM.
With `CN(C)CCOc1cc(-c2cnc(N)c(-c3nnc(-c4ccccc4)o3)n2)ccn1` [IA-165, 5-[2-(2-dimethylaminoethyloxy)-4-pyridyl]-3-(5-phenyl-1,3,4-oxadiazol-2-yl)pyrazin-2-amine] the Ki was 10 to 100 nM.
In the case of `Nc1ncc(-c2ccc(S(=O)(=O)C3CCOCC3)cc2)nc1-c1nnc(-c2ccccc2F)o1` [IA-327, 3-[5-(2-fluorophenyl)-1,3,4-oxadiazol-2-yl]-5-(4-tetrahydropyran-4-ylsulfonylphenyl)pyrazin-2-amine], the Ki is reported as at most 10 nM.
In the case of `CC(C)S(=O)(=O)c1ccc(-c2cnc(N)c(-c3nnc(NC4CCCNC4)o3)n2)cc1` (stereo not drawn) [IA-199, 5-[3-amino-6-(4-isopropylsulfonylphenyl)pyrazin-2-yl]-N-(3-piperidyl)-1,3,4-oxadiazol-2-amine], the Ki is reported as 100 to 5000 nM.
Compound `N#Cc1ccc(-c2cnc(N)c(-c3nc4ccccc4[nH]3)n2)cc1` [Compound I-129, 4-(5-amino-6-(1H-benzo[d]imidazol-2-yl)pyrazin-2-yl)benzonitrile] has a Ki of 10 to 100 nM.
`Nc1ncc(-c2ccccc2)nc1-c1nc2ccccc2[nH]1` [Compound I-110, 3-(1H-benzo[d]imidazol-2-yl)-5-phenylpyrazin-2-amine] showed a Ki of 100 to 5000 nM.
Compound `Cc1ccsc1-c1nnc(-c2nc(-c3ccc(S(=O)(=O)CCN(C)C)cc3)cnc2N)o1` [IA-269, 5-[4-(2-dimethylaminoethylsulfonyl)phenyl]-3-[5-(3-methyl-2-thienyl)-1,3,4-oxadiazol-2-yl]pyrazin-2-amine] has a Ki of at most 10 nM.
With `CNCc1ccc(-c2nnc(-c3nc(-c4ccc(S(=O)(=O)CCCO)cc4)cnc3N)o2)cc1` [IA-301, 3-[4-[5-amino-6-[5-[4-(methylaminomethyl)phenyl]-1,3,4-oxadiazol-2-yl]pyrazin-2-yl]phenyl]sulfonylpropan-1-ol] the Ki was at most 10 nM.
`CN(C)C(=O)c1ccc(-c2cnc(N)c(-c3nnc(-c4cccc([N+](=O)[O-])c4)o3)n2)cc1` [IA-286, 4-(5-amino-6-(5-(3-nitrophenyl)-1,3,4-oxadiazol-2-yl)pyrazin-2-yl)-N,N-dimethylbenzamide] gave a Ki of 100 to 5000 nM.
`Cc1cccc(-c2nnc(-c3nc(-c4ccc(C(=O)N(C)C)cc4)cnc3N)o2)c1` [IA-237, 4-[5-amino-6-[5-(m-tolyl)-1,3,4-oxadiazol-2-yl]pyrazin-2-yl]-N,N-dimethyl-benzamide] gave a Ki of 10 to 100 nM.
Work on `CS(=O)(=O)c1ccc(-c2cnc(N)c(C(=O)Nc3ncns3)n2)cc1` [VII-7] yielded a Ki of 10 to 100 nM.
`NCCSc1ccccc1-c1cnc(N)c(-c2nnc(-c3ccccc3)o2)n1` [IA-224, 5-(2-(2-aminoethylthio)phenyl)-3-(5-phenyl-1,3,4-oxadiazol-2-yl)pyrazin-2-amine] was tested, and the Ki was 100 to 5000 nM.
